Reference: US7939509B2, “Partial and full agonists of A1 adenosine receptors” (Gilead Sciences, Inc., priority 2002, dated 2011)
Values joined by “and” are separate entries in the source; they are usually repeats but may differ in a detail not shown here. Identical values can stand only once.

Key:
[1] = cited from earlier work
awake rats [2] = assay: Anti-lipolytic effect: serum free fatty acids (FFA) in overnight-fasted awake rats; assay type: in vivo, rat
Experimental: All experimental procedures were performed under a protocol approved by the Institutional Animal Care and Use Committee of CV Therapeutics, Inc., and in accordance with the recommendations set forth in the Guide for the Care and Use of Laboratory Animals published by the National Research Council. Male Sprague-Dawley rats (225-250 gm) with either one or two indwelling catheters (carotid and jugular) were purchased from Charles River Laboratories (Wilmington, Mass.). Animals were housed 1 per cage in a room maintained on a 12 h light/dark cycle (light on 06.00-18.00 h) under constant temperature (22-25° C.) and with ad libitum access to food and water. The anti-lipolytic effects of Compound A were studied in awake rats. Animals were fasted overnight before experimental use. On the day of the experiment, animals were put in metabolic cages and left undisturbed to acclimate to the environment for 1-2 hrs. An infusion set (21 G×¾″, 0.8×19 mm U.T.W., 3½″, 9 cm tubing, volume 0.15 ml) was connected to the arterial catheter for blood sampling. A 1% sodium citrate saline solution was used to flush the lines. A pre-treatment blood sample was obtained from each animal to determine baseline values for FFA and TG. Compound A was given via oral gavage, sc injection, iv injection, or iv infusion, as described, for each different series of experiments. Blood samples were collected into serum separator tubes (Becton Dickinson, Franklin Lakes, N.J.) at pre-determined times, Blood was allowed to clot, and then centrifuged at 8000 rpm for 4 min at 4° C. The serum was stored at −80° C. and was thawed at 4° C. for determinations of FFA and TG contents. […] Sodium citrate and Triton WR1339 were purchased from Sigma (St. Louis, Mo.). Nicotinic acid and PEG 400 were purchased from VWR (by EMD Chemicals). Triton WR 1339 was diluted in warm saline (˜37° C.) with frequent vortexing. […] Compound A was dissolved in PEG 400, and then diluted with distilled water to make a 20% PEG drug solution. Serum FFA and TGs were measured using commercial kits from Wako Chemicals, Richmond, Va. Glucose and Insulin were measured using commercial kits from Wako Chemicals USA (Richmond, Va.). All data are reported as mean±SEM. Statistical analysis of data from experiments with 2 treatment groups was performed using the unpaired Student's t-test. Two way analysis of variance followed by Bonferroni's test was used for multiple comparisons.

awake rats [3] = assay: Insulin dose response to reduce FFA with and without Compound A in awake rats; assay type: in vivo, rat
Experimental: FIG. 6 graphically represents how Compound A potentates the effect of insulin in reducing FFA levels. Shown are the dose response curves for the effect of insulin to reduce FFA obtained in the absence and presence of Compound A (0.5 mg/kg) in awake rats. Both insulin and Compound A were given via IP injection. Each data point is the mean±SEM of the maximal (peak effect) percent decrease in FFA levels from baseline from three to five rats.
The anti-lipolytic effects of Compound A were studied in awake rats. Animals were fasted overnight before experimental use. On the day of the experiment, animals were put in metabolic cages and left undisturbed to acclimate to the environment for 1-2 hrs. An infusion set (21 G×¾″, 0.8×19 mm U.T.W., 3½″, 9 cm tubing, volume 0.15 ml) was connected to the arterial catheter for blood sampling. A 1% sodium citrate saline solution was used to flush the lines. A pre-treatment blood sample was obtained from each animal to determine baseline values for FFA and TG. Compound A was given via oral gavage, sc injection, iv injection, or iv infusion, as described, for each different series of experiments. Blood samples were collected into serum separator tubes (Becton Dickinson, Franklin Lakes, N.J.) at pre-determined times, Blood was allowed to clot, and then centrifuged at 8000 rpm for 4 min at 4° C. The serum was stored at −80° C. and was thawed at 4° C. for determinations of FFA and TG contents.
The effect of insulin (0.005-1 U/kg) to reduce serum FFA was determined in the absence and presence of a single dose (0.5 mg/kg) of Compound A (FIG. 6). Baseline FFA levels before insulin administration in vehicle and Compound A treated groups were 0.84±0.01 and 0.92±0.02 mM, respectively. […] The insulin dose response to reduce FFA levels was then repeated in the presence of Compound A (0.5 mg/kg). Compound A alone (0.5 mg/kg) caused an 18% decrease in FFA levels. The doses of insulin that cause 50% decrease (ED50) in FFA levels in the absence and presence of Compound A were 0.4 and 0.1 U/kg, respectively.

Nc1ncnc2c1ncn2[C@@H]1O[C@H](CO)[C@@H](O)[C@H]1O [adenosine]
half-life [1]: less than 10 sec

O=C(O)c1cccnc1 [nicotinic acid, reference compound]
maximal decrease in FFA levels (awake rats [2]; 10 mg/kg iv bolus): 57±5%
FFA level after treatment (awake rats [2]; 10 mg/kg iv bolus, from 0.85±0.09, p<0.001): 0.35 ± 0.01 nM
rebound increase of FFA levels (awake rats [2]; after iv bolus): seen

insulin
dose of insulin that causes 50% decrease (ED50) in FFA levels (awake rats [3]; in the absence of Compound A): 0.4 (0.3916-0.4208, 95% Cl) U/kg and 0.4 U/kg
dose of insulin that causes 50% decrease (ED50) in FFA levels (awake rats [3]; in the presence of Compound A (0.5 mg/kg IP), 0.5 mg/kg): 0.1 (0.0935-0.133) U/kg and 0.1 U/kg
lowering of FFA levels by insulin (awake rats [3]; insulin 0.005-1 U/kg IP, without Compound A): up to 67±1%
